Results as given in patent US10053468B2, “Heterocyclic compound” (TAKEDA PHARMACEUTICAL COMPANY LIMITED, priority 2013, dated 2018).
Where two headings read alike, the source gives them in different places.

How the values were obtained:
RORγt [1] = target: T1, RORγt (Homo sapiens, UniProt P51449); test: RORγt binding test using fluorescent-labeled cholesterol (TR-FRET); conditions: read-out: Binding inhibitory rate of fluorescent-labeled cholesterol to RORγt at test compound 1 μM (%)
T1 sequence (P51449 1-497 isoform P51449-2): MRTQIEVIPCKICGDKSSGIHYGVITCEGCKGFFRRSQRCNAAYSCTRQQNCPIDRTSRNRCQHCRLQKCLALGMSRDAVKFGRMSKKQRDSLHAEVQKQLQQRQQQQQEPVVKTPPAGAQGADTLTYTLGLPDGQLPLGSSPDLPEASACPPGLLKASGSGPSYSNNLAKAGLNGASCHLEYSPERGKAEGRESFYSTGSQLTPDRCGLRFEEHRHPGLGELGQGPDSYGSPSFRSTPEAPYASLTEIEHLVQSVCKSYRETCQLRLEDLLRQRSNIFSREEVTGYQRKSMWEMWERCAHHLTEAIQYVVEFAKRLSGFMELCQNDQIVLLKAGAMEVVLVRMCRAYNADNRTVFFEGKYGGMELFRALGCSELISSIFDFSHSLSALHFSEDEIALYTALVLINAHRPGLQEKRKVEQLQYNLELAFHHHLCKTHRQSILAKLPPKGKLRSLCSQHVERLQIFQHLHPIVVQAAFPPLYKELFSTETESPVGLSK
Description: RORγt Binding Test Using Fluorescent-labeled Cholesterol
The binding activity of the test compound to RORγt was measured by a time resolved fluorescence resonance energy transfer method (TR-FRET) utilizing histidine-tagged RORγt, fluorescent-labeled cholesterol (BODIPY-cholesterol, AVIVA), and terbium-labeled anti-histidine tag antibody (Invitrogen). First, a test compound diluted with an assay buffer (20 mM Tris-HCl (pH 7.5), 100 mM NaCl, 1 mM DTT, 0.1% BSA) was added to a 384 well plate by 3 μL. Then, RORγt diluted with an assay buffer to 240 nM was added by 3 μL, after which fluorescent-labeled cholesterol diluted with the assay buffer to 12 μM was added by 3 μL, and the mixture was stood at room temperature for 20 min. Thereafter, a terbium-labeled anti-histidine tag antibody diluted with the assay buffer to 8 nM was added by 3 μL. The mixture was stood at room temperature for 20 min, and fluorescence intensity (excitation wavelength 320 nm, fluorescence wavelength 520 nm, delay time 100 microseconds) was measured by Envision (PerkinElmer).

RORγt [2] = target: T1, RORγt; test: Cofactor recruitment test (Alpha Screen, biotinylated SRC-1 peptide); type: biochemical; conditions: read-out: Signal value inhibitory rate at test compound 1 μM (%)
Description: Cofactor Recruitment Test
Cofactor recruitment test was performed by Alpha Screen (Histidine Detection Kit, PerkinElmer) method. First, a test compound was diluted with an assay buffer (50 mM Tris-HCl (pH 7.5), 50 mM KCl, 1 mM DTT, 0.1% BSA) and added to a 384 well plate by 5 μL. […] The mixture was stood in a dark place for 1 hr, and the signal value was measured by Envision (PerkinElmer).

RORγt [3] = target: T1, RORγt; test: Jurkat reporter test (human IL-17 ROR response element luciferase, RORγt vector); type: cell-based; conditions: read-out: Luminescence level inhibitory rate at test compound 3 μM (%)
Description: The Jurkat cells used for the reporter test were cultured in a culture medium (RPMI (Invitrogen), 10% FCS (AusGeneX), 100 U/mL penicillin, 100 μg/mL streptomycin). On the day of the test, 4×10^7 cells were recovered by a centrifugal operation (1000 rpm, 5 min.) and suspended in PBS (phosphate buffered saline) (Invitrogen). Thereafter, the cells were recovered again by a centrifugal operation, and suspended in 2 mL of R buffer (NEON transfection kit, Invitrogen). […] Gene transfer was performed by Electroporation apparatus (NEON, Invitrogen) under the conditions of pulse voltage 1350 V, interval 10 milliseconds, number of times 3. The cells after gene transfer were suspended in 40 mL of a reaction medium (RPMI, 10% Lipid reduced FCS (HyClone), 10 mM HEPES (pH 7.5), 100 U/mL penicillin, 100 μg/mL streptomycin, 5 μM lovastatin), and plated in a 96 well plate by 90 μL. A test compound diluted with the reaction medium was added by 10 μL, and the cells were cultured overnight in an incubator. Bright-Glo (Promega) was added by 100 μL, and the mixture was stirred at room temperature for 10 min, and the luminescence level was measured by Envision (PerkinElmer).

[4] = test compound 3 μM, Jurkat cells

Structure (SMILES) | inhibition at 1 µM (RORγt [1]) | inhibition at 1 µM (RORγt [2]) | inhibition at 3 µM (RORγt [3]; [4]) | inhibition at 3 µM (RORγt [3]; Jurkat)
COc1ccc2c(n1)CCN(C(=O)c1cc(O)no1)[C@H]2C(=O)Nc1cc(F)c([Si](C)(C)C)c(F)c1 [Example 122, (5R)-N-(3,5-difluoro-4-(trimethylsilyl)phenyl)-6-((3-hydroxy-1,2-oxazol-5-yl)carbonyl)-2-methoxy-5,6,7,8-tetrahydro-1,6-naphthyridine-5-carboxamide] | 102% | 99% |  | 103%
COc1ccc2c(n1)CCN(C(=O)Cc1cc(O)no1)[C@H]2C(=O)Nc1cc(F)c([Si](C)(C)C)c(F)c1 [Example 124, (5R)-N-(3,5-difluoro-4-(trimethylsilyl)phenyl)-6-((3-hydroxy-1,2-oxazol-5-yl)acetyl)-2-methoxy-5,6,7,8-tetrahydro-1,6-naphthyridine-5-carboxamide] | 101% | 99% |  | 102%
CCOc1ccc2c(n1)CCN(C(=O)Cc1cc(O)no1)[C@H]2C(=O)Nc1cc(F)c([Si](C)(C)C)c(F)c1 [Example 128, (5R)-N-(3,5-difluoro-4-(trimethylsilyl)phenyl)-2-ethoxy-6-((3-hydroxy-1,2-oxazol-5-yl)acetyl)-5,6,7,8-tetrahydro-1,6-naphthyridine-5-carboxamide] | 103% | 100% |  | 103%
CCOc1ccc2c(n1)CCN(C(=O)c1cc(O)no1)[C@H]2C(=O)Nc1cc(F)c2c(c1)CCC2(C)C [Example 145, (5R)-2-ethoxy-N-(7-fluoro-1,1-dimethyl-2,3-dihydro-1H-inden-5-yl)-6-((3-hydroxy-1,2-oxazol-5-yl)carbonyl)-5,6,7,8-tetrahydro-1,6-naphthyridine-5-carboxamide] | 102% | 92% | 100% | 
CCOc1ccc2c(n1)CCN(C(=O)c1cc(O)no1)[C@H]2C(=O)Nc1ccc([Si](C)(C)C)c(F)c1 [Example 149, (5R)-2-ethoxy-N-(3-fluoro-4-(trimethylsilyl)phenyl)-6-((3-hydroxy-1,2-oxazol-5-yl)carbonyl)-5,6,7,8-tetrahydro-1,6-naphthyridine-5-carboxamide] | 103% | 99% |  | 103%

More lines, main results first:

inhibition at 1 µM (RORγt [1]) | inhibition at 1 µM (RORγt [2]) | inhibition at 3 µM (RORγt [3]; [4]) | Structure (SMILES) | inhibition at 3 µM (RORγt [3]; Jurkat)
101% | 76% | 93% | COc1ccc2c(c1)CCN(C(=O)c1cc(O)no1)[C@H]2C(=O)Nc1cc(F)c(C(C)(C)COCC2CC2)c(F)c1 [Example 158, (1R)-N-(4-(1-(cyclopropylmethoxy)-2-methylpropan-2-yl)-3,5-difluorophenyl)-2-((3-hydroxy-1,2-oxazol-5-yl)carbonyl)-6-methoxy-1,2,3,4-tetrahydroisoquinoline-1-carboxamide] | 
100% | 82% | 98% | COc1ccc2c(c1)CCN(C(=O)c1cc(O)no1)[C@H]2C(=O)Nc1cc(F)c(C(C)(C)COCC(F)F)c(F)c1 [Example 160, (1R)-N-(4-(1-(2,2-difluoroethoxy)-2-methylpropan-2-yl)-3,5-difluorophenyl)-2-((3-hydroxy-1,2-oxazol-5-yl)carbonyl)-6-methoxy-1,2,3,4-tetrahydroisoquinoline-1-carboxamide] | 
100% | 76% | 90% | COc1ccc2c(c1)CCN(C(=O)CCCC(=O)O)[C@H]2C(=O)Nc1cc(F)c(C(C)(C)COCC2CC2)c(F)c1 [Example 161, 5-((1R)-1-((4-(1-(cyclopropylmethoxy)-2-methylpropan-2-yl)-3,5-difluorophenyl)carbamoyl)-6-methoxy-3,4-dihydroisoquinolin-2 (1H)-yl)-5-oxopentanoic acid] | 
99% | 82% | 95% | COc1ccc2c(c1)CCN(C(=O)CCCC(=O)O)[C@H]2C(=O)Nc1cc(F)c(C(C)(C)COCC(F)F)c(F)c1 [Example 162, 5-((1R)-1-((4-(1-(2,2-difluoroethoxy)-2-methylpropan-2-yl)-3,5-difluorophenyl)carbamoyl)-6-methoxy-3,4-dihydroisoquinolin-2(1H)-yl)-5-oxopentanoic acid] | 
